Ends that are not written are not given here.
How the values were obtained:
Type in all cases: cell-based
[1] = system: Enterococcus faecium clinical isolate 1,225
Procedure: (§1) For the clinical isolates, we used 20 different isolates from the Public Health Reference Laboratory collection of the Secretaría de Salud del Distrito (SdSD; Bogotá, Colombia). The samples were collected from June to December 2016. For each isolate, the patient parameters (age, gender and location) and the culture site were recorded for epidemiologic monitoring (Table 1). All isolates had been previously tested for antibiotic sensitivity at the Public Health Microbiology Laboratory using either the Phoenix™ system (Gram-positive) or the VITEK 2 system (Gram-negative).
(§2) We screened all five peptides against the ATCC reference strains and the clinical isolates according to Method M7-A7 of the National Committee for Clinical Laboratory Standards (CLSI, [2007]). The MIC50 and MBC values were determined using a broth microdilution and growth inhibition method previously reported by Leon-Calvijo et al. ([2015]), with some modifications (Wiegand et al., [2008]). Briefly, the MIC50 experiments comprised a liquid-inhibition growth assay in a sterile, untreated, 96-well flat-bottom tissue culture plate. The bacteria were cultured overnight n Mueller Hinton agar; three colonies were transferred to 8 mL of Mueller Hilton broth and incubated at 37°C until the mid-exponential phase of growth. The turbidity of the cultures was measured and adjusted spectrophotometrically to a McFarland standard of 0.5, and then diluted to a final concentration of 5 × 10^7 colony forming units (CFU) per well. Stock solutions (2,000 μM) of each test peptide were serially diluted to final concentrations (per well) of 200, 100, 50, 25, 12.5, and 6.25 μM. Each concentration was evaluated in duplicate and each assay was performed in triplicate.
(§3) Wells containing Mueller Hilton broth with bacterial inoculum only served as bacterial-growth controls. Additional controls included Mueller Hilton broth alone (as blank) and Mueller Hilton broth with ciprofloxacin (2 μg/mL; as positive control). The microplate was incubated for 24 h at 37°C, and growth inhibition was measured by monitoring the optical density at 620 nm (OD620). The MIC50 was defined as the peptide concentration at which bacterial growth was inhibited by 50%.
(§4) To determine the MBC, an aliquot from each well of the MIC50 assay was spread onto Mueller Hilton agar. After 18 h at 37°C, the concentration that inhibited bacterial growth was determined. Each of these tests was performed four times. MBC was defined as the lowest concentration of peptide at which the number of bacteria was reduced by 99.9% in vitro (European Committee for Antimicrobial Susceptibility Testing, [2000]).

[2] = system: Klebsiella pneumoniae clinical isolate 51,009
Procedure: as §1, §2, §3, §4

[3] = system: Staphylococcus aureus clinical isolate 43,337
Procedure: as §1, §2, §3, §4

[4] = system: Enterococcus faecium clinical isolate 1,040
Procedure: as §1, §2, §3, §4

[5] = system: Staphylococcus aureus clinical isolate 43,062
Procedure: as §1, §2, §3, §4

[6] = system: Pseudomonas aeruginosa clinical isolate 48,526
Procedure: as §1, §2, §3, §4

[7] = system: Pseudomonas aeruginosa clinical isolate 48,221
Procedure: as §1, §2, §3, §4

[8] = system: Klebsiella pneumoniae clinical isolate 51,048
Procedure: as §1, §2, §3, §4

[9] = system: Staphylococcus aureus clinical isolate 52,013
Procedure: as §1, §2, §3, §4

[10] = system: Pseudomonas aeruginosa clinical isolate 47,661
Procedure: as §1, §2, §3, §4

[11] = system: Klebsiella pneumoniae clinical isolate 50,424
Procedure: as §1, §2, §3, §4

[12] = system: Klebsiella pneumoniae clinical isolate 50,181
Procedure: as §1, §2, §3, §4

[13] = system: Pseudomonas aeruginosa clinical isolate 48,458
Procedure: as §1, §2, §3, §4

[14] = system: Staphylococcus aureus clinical isolate 48,575
Procedure: as §1, §2, §3, §4

[15] = system: Pseudomonas aeruginosa clinical isolate 48,220
Procedure: as §1, §2, §3, §4

[16] = system: Enterococcus faecium clinical isolate 550
Procedure: as §1, §2, §3, §4

In the case of RWQWRWQWR [PLS], the MBC ([1]; clinical isolate 1,225, 18 h) is reported as 100.0 µM, the MIC50 ([1]; clinical isolate 1,225, 24 h) is reported as >100 µM and the MBC ([2]; clinical isolate 51,009, 18 h) is reported as 100.0 µM. It also gave an MIC50 ([2]; clinical isolate 51,009, 24 h) of 25.6 µM, an MBC ([3]; clinical isolate 43,337, 18 h) of 50.0 µM and an MIC50 ([3]; clinical isolate 43,337, 24 h) of 13.0 µM. For the same sequence, the MBC ([4]; clinical isolate 1,040, 18 h) was >100 µM, the MIC50 ([4]; clinical isolate 1,040, 24 h) was >100 µM and the MBC ([5]; clinical isolate 43,062, 18 h) was 100.0 µM. The MIC50 ([5]; clinical isolate 43,062, 24 h) was 50.4 µM, the MBC ([6]; clinical isolate 48,526, 18 h) was 100.0 µM and the MIC50 ([6]; clinical isolate 48,526, 24 h) was >100 µM. The MBC ([7]; clinical isolate 48,221, 18 h) was >100 µM, the MIC50 ([7]; clinical isolate 48,221, 24 h) was >100 µM and the MBC ([8]; clinical isolate 51,048, 18 h) was >100 µM. It also gave an MIC50 ([8]; clinical isolate 51,048, 24 h) of 11.7 µM, an MBC ([9]; clinical isolate 52,013, 18 h) of 100.0 µM and an MIC50 ([9]; clinical isolate 52,013, 24 h) of 8.3 µM. The MBC ([10]; clinical isolate 47,661, 18 h) was >100 µM, the MIC50 ([10]; clinical isolate 47,661, 24 h) was 75.0 µM and the MBC ([11]; clinical isolate 50,424, 18 h) was >100 µM. The MIC50 ([11]; clinical isolate 50,424, 24 h) was 5.6 µM, the MBC ([12]; clinical isolate 50,181, 18 h) was >100 µM and the MIC50 ([12]; clinical isolate 50,181, 24 h) was >100 µM. For the same sequence, the MBC ([13]; clinical isolate 48,458, 18 h) was >100 µM, the MIC50 ([13]; clinical isolate 48,458, 24 h) was >100 µM and the MBC ([14]; clinical isolate 48,575, 18 h) was 100.0 µM. For the same sequence, the MIC50 ([14]; clinical isolate 48,575, 24 h) was 36.5 µM, the MBC ([15]; clinical isolate 48,220, 18 h) was >100 µM and the MIC50 ([15]; clinical isolate 48,220, 24 h) was >100 µM. For the same sequence, the MBC ([16]; clinical isolate 550, 18 h) was 100.0 µM and the MIC50 ([16]; clinical isolate 550, 24 h) was >100 µM.

Source: PMC5840262, “Design, Synthesis and Evaluation of Branched RRWQWR-Based Peptides as Antibacterial Agents Against Clinically Relevant Gram-Positive and Gram-Negative Pathogens” (Frontiers in Microbiology, 2018)
